Data on four compounds can be found in publication PMC12841663, “Antiprotozoal Potential of Cultivated Geranium macrorrhizum Against Giardia duodenalis, Trichomonas gallinae and Leishmania infantum” (International Journal of Molecular Sciences, 2026).

≈ marks a conversion by molar mass, not a printed value. Where only a bound is given, the exact number is not on record here.

One may read the IC50 as the concentration that gives 50% inhibition. Read a high IC50 as weaker potency. By CC50 is commonly meant the concentration that lowers cell viability or growth by half.

Series [1] relates to L. infantum promastigotes. Set-up: method as in doi:10.1080/10412905.2013.820669. As to conditions: cited from earlier work.
The test system of series [2] is intracellular amastigotes of L. infantum. The series can be described thus: Infection index of DH82 macrophages infected with L. infantum (intracellular amastigotes). The series is classed as cell-based, Leishmania infantum. As to conditions: 1 µg/mL, 48 h.
Series [3] deals with Vero cells. More on the design: method as in PMID 36672727. As to conditions: cited from earlier work.
Series [4] has as its system L. infantum promastigotes. Description: Morphological evaluation by light microscopy (Diff-Quik), L. infantum. The class given is cell-based, Leishmania infantum. As to conditions: amphotericin B at 1 µg/mL. Here is the method: L. infantum, T. gallinae and G. duodenalis were studied at 0, and 48 h after treatment with germacrone (100 µg/mL), and controls (DMSO 1%, metronidazole at 10 µg/mL for T. gallinae and G. duodenalis and amphotericin B at 1 µg/mL for L. infantum).
For L. infantum and T. gallinae, cultures in the exponential growth phase (10^7 promastigotes/mL and 5 × 10^5 trophozoites/mL, respectively) were treated in 96-well microplates. At each time point, quadruplicates were assigned per condition: growth control, germacrone, and the corresponding positive control (metronidazole or amphotericin B). For microscopy, quadruplicate wells corresponding to the same condition/time point were pooled prior to centrifugation to obtain sufficient biomass and a representative pellet for smear preparation. Pooled samples per condition/time point were centrifuged, resuspended in FBS and spread onto microscope slides. Once dried, samples were fixed and stained with Diff-Quik (Medion Diagnostic AG, Düdingen, Switzerland) following the manufacturer’s instructions. Additionally, three wells per condition (triplicates) were used for the MTT assay, with absorbance measured by spectrophotometry after 48 h.
Morphological changes were analyzed using light microscopy. Experiments were performed as independent biological replicates on different plates, and one Diff-Quik stained smear was obtained per condition and time point per biological replicate. For morphometric analysis, a total of 30 trophozoites per condition and time point were measured across the independent biological replicates and were selected by consecutive sampling during a predefined serpentine (zig-zag) scan across the preparation. Up to two eligible trophozoites per field (intact, well-focused and non-overlapping) were measured in sequential fields until n = 30 was reached, avoiding subjective selection of “representative” cells. Overlapping, partially visible, out-of-focus, edge-of-field, or debris-obscured trophozoites were excluded a priori. Trophozoites were photographed using a researcher’s mobile phone mounted to the microscope ocular. Calibration was performed at the same magnification using a stage micrometre and applied in ImageJ v. 1.54d. One Diff-Quik stained smear was obtained per condition/time point per biological replicate Cell length, cell width, cell surface, nuclear length, nuclear width, axoneme (only Giardia), and length of axostyle (only T. gallinae) were measured with ImageJ software, and the data were recorded in an Excel database for statistical analysis.
The Shapiro–Wilk test was used to assess the normality of the morphological variables. When data followed a normal distribution, Student’s t-test was applied; otherwise, non-parametric tests, such as the Mann–Whitney U test, was used. Values of p < 0.05 were considered significant. For the morphological analysis, the mean, standard deviation, median, and interquartile range were calculated using SPSS version 20 (IBM Corp., Armonk, NY, USA).

Series [5] relates to T. gallinae trophozoites. The series can be described thus: Anti-Trichomonas activity assay (MTT viability). As to conditions: pure compounds. The series is classed as cell-based. As to the method:
The anti-Trichomonas (AT) activity assay utilized T. gallinae trophozoites from an isolate obtained from a wood pigeon by Dr. […] EOs and pure compounds were solved in DMSO (Sigma, Madrid, Spain) (<1% final concentration). […] Trophozoites/promastigotes viability was assessed using the modified MTT colorimetric assay, as described previously in the literature, with results further validated by microscopic examination. The plate was analyzed in a spectrophotometer at a wavelength of 570 nm. The percentage of antiparasitic activity was calculated as growth inhibition, using the following formula: % AT = 100 - [(Ap - Ab) ÷ (Ac - Ab)] × 100, where Ap is the absorbance of the tested product, Ab the absorbance of the blank and Ac the absorbance of the control wells (culture without treatment). […] Metronidazole (Acros Organics, Madrid, Spain) served as a reference compound for anti-Giardia activity and Anti-Trichomonas activity and amphotericin B for anti-Leishmania activity. Data was analyzed using STATGRAPHICS Centurion XIX ([…].com) (Statgraphics Technologies, Inc., The Plains, VA, USA). The mammalian cells and trophozoites viability were tested with each compound in a dose-response experiment to calculate their relative potency (CC50 or IC50 value, respectively).

Series [6] can be described thus: Cytotoxicity of pure compounds on Vero cells (MTT). The class given is cell-based. As to conditions: African green monkey, Vero cells (kidney cells); 48 h exposure; 50% Vero cell mortality; MTT; read-out: Vero Cells CC50. As to the method:
African green monkey kidney cells (Vero cells) were maintained in Dulbecco’s modified Eagle’s minimal essential medium (DMEM) (Thermo Fisher Scientific, Waltham, MA, USA) supplemented with 10% FBS and 1% Pen-Strep at 37 °C under a humidified atmosphere of 5% CO2/95% air.
Cells seeded in 96-well flat-bottom microplates with 100 μL medium per well (initial densities 10^4 cells per well) were exposed for 48 h to serial dilutions (100, 75, 50, 25, 10 and 1 µg/mL) of the tested compounds in DMSO (<1% final concentration). Cell viability was analyzed by the MTT colorimetric assay method, and the purple-colored formazan precipitate was dissolved with 100 μL of DMSO [23].
(§1) Data was analyzed using STATGRAPHICS Centurion XIX (https://www.statgraphics.com) (Statgraphics Technologies, Inc., The Plains, VA, USA). The mammalian cells and trophozoites viability were tested with each compound in a dose–response experiment to calculate their relative potency (CC50 or IC50 value, respectively). IC50 (μg/mL) expresses the dose of EOs, extracts or pure compounds needed to produce 50% mortality of trophozoites, while CC50 (μg/mL) expresses the dose of compounds necessary to produce 50% mortality of Vero cells.

Series [7] deals with G. duodenalis trophozoites. Description: Anti-Giardia activity assay (MTT viability). The series is classed as cell-based. As to conditions: pure compounds. As to the method:
Anti-Giardia (AG) activity assays were conducted on G. duodenalis trophozoites from the ATCC® 30957 strain (assemblage A), using flat-bottom microwell plates in quadruplicate. […] Incubation was carried out for 24 h at 37 °C. EOs and pure compounds were solved in DMSO (Sigma, Madrid, Spain) (<1% final concentration). […] Trophozoites/promastigotes viability was assessed using the modified MTT colorimetric assay, as described previously in the literature, with results further validated by microscopic examination. The plate was analyzed in a spectrophotometer at a wavelength of 570 nm. The percentage of antiparasitic activity was calculated as growth inhibition, using the following formula: % AT = 100 - [(Ap - Ab) ÷ (Ac - Ab)] × 100, where Ap is the absorbance of the tested product, Ab the absorbance of the blank and Ac the absorbance of the control wells (culture without treatment). […] Metronidazole (Acros Organics, Madrid, Spain) served as a reference compound for anti-Giardia activity and Anti-Trichomonas activity and amphotericin B for anti-Leishmania activity. Data was analyzed using STATGRAPHICS Centurion XIX ([…].com) (Statgraphics Technologies, Inc., The Plains, VA, USA). The mammalian cells and trophozoites viability were tested with each compound in a dose-response experiment to calculate their relative potency (CC50 or IC50 value, respectively).

In series [8] the test system is L. infantum promastigotes. The series can be described thus: Anti-Leishmania activity assay on promastigotes (MTT viability). The class given is cell-based. As to conditions: pure compounds. As to the method: Anti-Leishmania (AL) activity was assessed on L. infantum promastigotes (MCAN/ES/98/LLM-722), kindly provided by Dr. J.M. Requena from CBM-CSIC, as well as on L. infantum (M/CAN/ES/96/BCN150 zymodeme MON-1), strain isolated from a dog with active visceral leishmaniasis. L. infantum promastigotes (MCAN/ES/98/LLM-722) were cultured in RPMI medium supplemented with 15% FBS and 10 μg/mL of hemin (Acros Organics, Madrid, Spain), grown at 26 °C. Promastigotes in logarithmic growth were seeded in 96-well flat-bottom plates at a volume of 100 μL of culture per well and incubated for 48 h. Promastigotes for macrophage infection (M/CAN/ES/96/BCN150 zymodeme MON-1) were maintained at 26 °C in Schneider’s insect medium (Lonza, Basel, Switzerland) supplemented with 10% FBS and 100 U/mL penicillin and 100 μg/mL streptomycin (Lonza, Basel, Switzerland) (Pen-Strep). Promastigotes in the stationary phase of growth (5–6 days) were washed twice in phosphate-buffered saline at 2700× g for 10 min at 22 °C and employed for macrophage infection.
EOs and pure compounds were solved in DMSO (Sigma, Madrid, Spain) (<1% final concentration). […] Trophozoites/promastigotes viability was assessed using the modified MTT colorimetric assay, as described previously in the literature, with results further validated by microscopic examination. The plate was analyzed in a spectrophotometer at a wavelength of 570 nm. The percentage of antiparasitic activity was calculated as growth inhibition, using the following formula: % AT = 100 − [(Ap − Ab) ÷ (Ac − Ab)] × 100, where Ap is the absorbance of the tested product, Ab the absorbance of the blank and Ac the absorbance of the control wells (culture without treatment).
Pure compounds were tested using the same method, although at concentrations of 100, 75, 50, 25, 10, and 1 μg/mL. Metronidazole (Acros Organics, Madrid, Spain) served as a reference compound for anti-Giardia activity and Anti-Trichomonas activity and amphotericin B for anti-Leishmania activity.
as §1

Consider `C[C@@H]1[C@H](O)[C@@H](C)/C=C/C=C/C=C/C=C/C=C/C=C/C=C/[C@H](O[C@@H]2O[C@H](C)[C@@H](O)[C@H](N)[C@@H]2O)C[C@@H]2O[C@](O)(C[C@@H](O)C[C@@H](O)[C@H](O)CC[C@@H](O)C[C@@H](O)CC(=O)O[C@H]1C)C[C@H](O)[C@H]2C(=O)O` [AmB, amphotericin B], for which the “L. infantum (pm) IC50” value in series [1] is 0.01 [22] µg/mL. The “Infection Index” value in series [2] (% infected x amastigotes per infected cell) was determined as 8.9 ± 0.0. In series [2] (mean ± SD), the “% Infected Cells” value came out at 6.4 ± 3.7 % and the “nº Amastigotes/Infected Cell” value came to 1.4 ± 0.7. The “Vero Cells CC50” value in series [3] was 7.11 [21] µg/mL. Besides, in series [4], the “morphological alterations of promastigotes” value is listed as “strong morphological alterations”.
Regarding `C=C[C@]1(C)CC(=O)C(=C(C)C)C[C@H]1C(=C)C` [Compound 1, β-elemenone], the IC50 in series [5], in series [7] and in series [8] was over 100 µg/mL throughout. The CC50 at 48 h in series [6] was over 100 µg/mL.
Regarding `CC(C)=C1CC(=O)[C@]2(C)CC[C@H]2[C@@H](C)CC1=O` [Compound 3], the IC50 in series [5] is over 100 µg/mL; in series [7] it was over 100 µg/mL; in series [8], 35.5 µg/mL (≈ 151 µM). Further, the CC50 at 48 h in series [6] was over 100 µg/mL.
Consider `C/C1=C\CC2(OC2(C)C)C(=O)C/C(C)=C/CC1` (stereo not drawn) [Compound 4], for which the IC50 in series [5] was 51.6 µg/mL (≈ 220 µM); in series [7] it was over 100 µg/mL; in series [8] it was 88.8 µg/mL (≈ 379 µM). Moreover, the CC50 at 48 h in series [6] is over 100 µg/mL.
